One assay addresses CDK19/CycC (Homo sapiens, UniProt Q9BWU1). The experiment in a line: LanthaScreen europium kinase binding assay (FRET displacement), CDK19. Conditions: for CDK19 Selectivity: CDK19/CDK8 selectivity based on IC50 values; for IC50: his-tagged CDK19/CycC 5 nM, tracer 10 nM, 3 h incubation. Here is the method:
(§1) FRET Displacement Assay to Measure IC50: The CDK19/CDK8 IC50 values were measured to evaluate activity and to determine CDK19/CDK8 selectivity. The IC50 values of the disclosed compounds was measured using a LanthaScreen™ europium kinase binding assay (ThermoFisher), as described herein.
To a kinase buffer cocktail solution (i.e., 5× Kinase Buffer A) was added: purified recombinant his-tagged CDK19/CycC protein (5 nM), ATP-competitive kinase inhibitor scaffold kinase tracer Alexa Fluor® 665 (10 nM), biotin anti-his tag antibody (2 nM), LanthaScreen® europium-streptavidin (2 nM). An aliquot of the cocktail solution (10 μL) was added to each well of a LUMITRAC™ 200:384 flat bottom, non-treated microtiter white plate. The plate was then covered to protect light sensitive reagents and incubated for 30 min at room temperature to equilibrate before addition of any inhibitors.
(§2) A serial dilution of the compounds was titrated into each well using an automated liquid handling Staccato integrated system at the following concentration(s) (Log10 Molar [C]): −4.5, −5.0, −5.5, −6.0, −6.5, −7.0, −7.5, −8.0 so that a complete dose-response could be calculated. A Tecan microplate reader infinite m200 instrument was then used to measure the FRET signal of each individual well using an excitation of 317/20 nm, emission europium of 620/12 nm, and emission kinase tracer of 665/12 nm after a 3 h incubation period at room temperature until steady-state kinetics were achieved.
(§3) Results were performed in duplicate and were repeated a total of 3 independent times before data was normalized to the DMSO control group and IC50 values reported.
Background: TR-FRET usually uses a lanthanide donor and a delayed reading to cut background.

In another assay the target is CDK8 (Homo sapiens, UniProt P49336). Briefly: LanthaScreen europium kinase binding assay (FRET displacement), CDK8. As for the experimental part: as §1
[…] An aliquot of the cocktail solution (10 μL) was added to each well of a LUMITRAC™ 200:384 flat bottom, non-treated microtiter white plate. The plate was then covered to protect light sensitive reagents and incubated for 30 min at room temperature to equilibrate before addition of any inhibitors.
as §2, §3

Each structure is given as a SMILES string.

Broadly, the IC50 is the midpoint of a concentration-inhibition curve. A high value points to lower potency.

Chain of CDK8 (P49336 whole entry): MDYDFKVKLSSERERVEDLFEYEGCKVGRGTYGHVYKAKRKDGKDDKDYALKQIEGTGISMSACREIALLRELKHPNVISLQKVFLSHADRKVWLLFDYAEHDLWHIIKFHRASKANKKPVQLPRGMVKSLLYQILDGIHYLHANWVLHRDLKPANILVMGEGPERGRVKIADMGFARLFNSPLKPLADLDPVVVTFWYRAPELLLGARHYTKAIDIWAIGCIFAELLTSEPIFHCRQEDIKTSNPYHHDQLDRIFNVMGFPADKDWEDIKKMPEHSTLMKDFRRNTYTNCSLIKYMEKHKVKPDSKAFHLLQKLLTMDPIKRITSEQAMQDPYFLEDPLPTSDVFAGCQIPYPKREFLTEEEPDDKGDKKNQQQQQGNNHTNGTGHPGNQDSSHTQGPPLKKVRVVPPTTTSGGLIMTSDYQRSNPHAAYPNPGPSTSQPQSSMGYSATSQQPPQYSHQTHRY
Chain of CDK8 (P24863 whole entry partner): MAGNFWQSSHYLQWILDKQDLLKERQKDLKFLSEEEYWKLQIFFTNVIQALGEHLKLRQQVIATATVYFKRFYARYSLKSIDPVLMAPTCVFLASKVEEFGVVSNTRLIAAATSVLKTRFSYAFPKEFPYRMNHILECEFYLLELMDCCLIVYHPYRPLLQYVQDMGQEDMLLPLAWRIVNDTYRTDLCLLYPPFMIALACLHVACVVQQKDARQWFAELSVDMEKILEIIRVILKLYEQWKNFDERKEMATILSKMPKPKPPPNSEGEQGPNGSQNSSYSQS
Chain of CDK19/CycC (Q9BWU1 whole entry): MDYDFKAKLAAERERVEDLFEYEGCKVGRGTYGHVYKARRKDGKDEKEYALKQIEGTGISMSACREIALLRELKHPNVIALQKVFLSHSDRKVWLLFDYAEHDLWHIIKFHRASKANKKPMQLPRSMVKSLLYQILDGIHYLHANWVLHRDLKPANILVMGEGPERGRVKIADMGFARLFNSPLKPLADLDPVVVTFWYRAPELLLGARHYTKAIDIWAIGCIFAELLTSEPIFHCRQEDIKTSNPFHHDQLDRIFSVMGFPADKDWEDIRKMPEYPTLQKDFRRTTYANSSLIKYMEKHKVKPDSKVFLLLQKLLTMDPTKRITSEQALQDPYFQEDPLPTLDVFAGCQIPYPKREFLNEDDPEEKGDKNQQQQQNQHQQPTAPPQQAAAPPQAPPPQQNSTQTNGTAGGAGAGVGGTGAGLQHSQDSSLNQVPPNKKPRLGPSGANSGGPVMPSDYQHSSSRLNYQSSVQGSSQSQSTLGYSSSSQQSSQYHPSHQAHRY
Chain of CDK19/CycC (P24863 whole entry partner): as the sequence (P24863 whole entry partner) above

Regarding `c1cc(Nc2cnc(Nc3ccc(C4CCCCC4)cc3)nc2)c(OC2CCCC2)cn1` [Compound A1], the “CDK19 Selectivity” value on CDK19/CycC amounted to 1.2. Further, the IC50 at CDK19/CycC is 0.069 µM; at CDK8, 0.059 µM.
On to `c1cc(Nc2cnc(Nc3ccc(C4COC4)cc3)nc2)c(OC2CCCC2)cn1` [Compound A2], for which, on CDK19/CycC, the “CDK19 Selectivity” value turned out to be 1.2 and the IC50 came to 0.011 µM. This compound also gave an IC50 on CDK8 of 0.014 µM.
For `c1cc(Nc2cnc(Nc3ccc(C4CCCC4)cc3)nc2)c(OC2CCCC2)cn1` [Compound A3], on CDK19/CycC, the “CDK19 Selectivity” value was determined as 1.1. In addition, the half-inhibitory concentration (IC50) worked out at 0.0076 µM at CDK19/CycC and 0.0082 µM at CDK8.
For the compound `CC(C)Cc1ccc(Nc2ncc(Nc3ccncc3)cn2)cc1` [Compound A5], the “CDK19 Selectivity” value at CDK19/CycC was 3.
Turning to `Cc1nc(Nc2ccc(CC(C)C)cc2)ncc1Nc1ccncc1` [Compound A6], on CDK19/CycC, the “CDK19 Selectivity” value is reported as 5.5 and the 50% inhibitory concentration (IC50) came to 0.038 µM. This compound also returned an IC50 on CDK8 of 0.21 µM.
In the case of `Fc1ccc(Nc2ncc(Nc3ccncc3)cn2)cc1` [Compound A7], the IC50 at CDK19/CycC amounted to 10 µM; at CDK8 it was 14 µM.
Turning to `Cc1cc(Nc2cnc(Nc3ccc(CC(C)C)cc3)nc2)ccn1` [Compound A8], the “CDK19 Selectivity” value on CDK19/CycC is given as 3.3.
Take `Cc1cc(Nc2cnc(Nc3ccc(CC(C)C)cc3)nc2)cc(C)n1` [Compound A9]: the “CDK19 Selectivity” value on CDK19/CycC amounted to 4. Further, the IC50 on CDK19/CycC came to 2.07 µM; on CDK8 it was 8.26 µM.
With `CCCc1ccc(Nc2ncc(Nc3ccnc(C)c3)cn2)cc1` [Compound A10], at CDK19/CycC, the “CDK19 Selectivity” value came to 3.1 and the IC50 was 0.099 µM. This compound also showed an IC50 on CDK8 of 0.31 µM.
`Cc1cnc2ccccc2c1Nc1cnc(Nc2ccc(CC(C)C)cc2)nc1` [Compound A12]: on CDK19/CycC, the “CDK19 Selectivity” value is 0.9 and the IC50 is 0.038 µM. This compound displayed an IC50 on CDK8 of 0.034 µM.
With `Cc1ccc2nccc(Nc3cnc(Nc4ccc(CC(C)C)cc4)nc3)c2c1` [Compound A13], on CDK19/CycC, the “CDK19 Selectivity” value stood at 2.4 and the IC50 is 0.024 µM. At CDK8, the IC50 was 0.056 µM.
As for `CCCc1ccc(Nc2ncc(Nc3ccncc3)cn2)cc1` [Compound A14], the “CDK19 Selectivity” value at CDK19/CycC is recorded as 3.3. The IC50 at CDK19/CycC was 0.029 µM; at CDK8, 0.096 µM.
For `CCCc1ccc(Nc2ncc(Nc3ccnc4ccccc34)cn2)cc1` [Compound A15], at CDK19/CycC, the “CDK19 Selectivity” value turned out to be 1.1 and the IC50 worked out at 0.096 µM. At CDK8, this compound had an IC50 of 0.109 µM.
For `c1cc(Nc2cnc(Nc3ccc(C4CC4)cc3)nc2)ccn1` [Compound A16], at CDK19/CycC, the “CDK19 Selectivity” value stood at 2.8 and the IC50 came to 0.133 µM. The same compound registered a concentration for half-maximal inhibition (IC50) at CDK8 of 0.371 µM.
With `Cc1cc(Nc2cnc(Nc3ccc(C4CC4)cc3)nc2)ccn1` [Compound A17], at CDK19/CycC, the “CDK19 Selectivity” value was 2.8 and the IC50 worked out at 0.419 µM. The compound also registered an IC50 at CDK8 of 1.16 µM.
For the compound `Cc1cc(Nc2cnc(Nc3ccc(C4CC4)cc3)nc2)cc(C)n1` [Compound A18], the half-inhibitory concentration (IC50) at CDK19/CycC and on CDK8 was 10 µM each time.
For `FC(F)C(F)(F)Oc1ccc(Nc2ncc(Nc3ccncc3)cn2)cc1` [Compound A19], on CDK19/CycC, the “CDK19 Selectivity” value worked out at 4.2 and the IC50 was found to be 0.0091 µM. In addition, the concentration for half-maximal inhibition (IC50) at CDK8 was determined as 0.038 µM.
For `CCCc1ccc(Nc2ncc(Nc3cc(C)nc(C)c3)cn2)cc1` [Compound A20], the IC50 at CDK19/CycC and on CDK8 was 10 µM in each case.
For `Cc1cnccc1Nc1cnc(Nc2ccc(CC(C)C)cc2)nc1C` [Compound A22], at CDK19/CycC, the “CDK19 Selectivity” value came out at 1.3 and the half-inhibitory concentration (IC50) came out at 0.024 µM. At CDK8, this compound returned an IC50 of 0.031 µM.
Turning to `COc1cc(Nc2cnc(Nc3ccc(CC(C)C)cc3)nc2)ccn1` [Compound A23], on CDK19/CycC, the “CDK19 Selectivity” value came out at 4.5. Moreover, the IC50 came to 0.1 µM at CDK19/CycC and 0.451 µM at CDK8.
In the case of `Cc1cc(Nc2cnc(Nc3cccc(C4CC4)c3)nc2)ccn1` [Compound A24], the IC50 at CDK19/CycC came to 9.87 µM; on CDK8, 10 µM.
With `COc1cnccc1Nc1cnc(Nc2ccc(CC(C)C)cc2)nc1C` [Compound A25], the “CDK19 Selectivity” value at CDK19/CycC is 0.9. The IC50 at CDK19/CycC worked out at 0.016 µM; at CDK8 it was 0.015 µM.
Taken in the same sequence, the figures for `c1cc(Nc2ncc(Nc3ccncc3)cn2)cc(C2CC2)c1` [Compound A26] were 1.6, 5.69 µM and 9.03 µM.
Turning to `Cc1cc(Nc2cnc(Nc3cccc(C4CC4)c3)nc2)cc(C)n1` [Compound A27], the IC50 on CDK19/CycC and at CDK8 was 10 µM each time.
For `CC(C)Cc1cccc(Nc2ncc(Nc3ccncc3)cn2)c1` [Compound A28], the “CDK19 Selectivity” value at CDK19/CycC is 1.7. Further, the IC50 at CDK19/CycC was determined as 1.64 µM; on CDK8 it was 2.73 µM.
`Cc1cc(Nc2cnc(Nc3cccc(CC(C)C)c3)nc2)ccn1` [Compound A29]: at CDK19/CycC, the “CDK19 Selectivity” value is on record as 2 and the IC50 was found to be 0.991 µM. At CDK8, the IC50 was 2.03 µM.
`Cc1cc(Nc2cnc(Nc3cccc(CC(C)C)c3)nc2)cc(C)n1` [Compound A30]: the IC50 at CDK19/CycC and on CDK8 was 10 µM each time.
On to `CC(C)Cc1cccc(Nc2ncc(Nc3cccnc3)cn2)c1` [Compound A31], for which the IC50 at CDK19/CycC was determined as 9.03 µM; on CDK8, 9.93 µM.
Regarding `Cc1cnccc1Nc1cnc(Nc2cccc(CC(C)C)c2)nc1` [Compound A32], on CDK19/CycC, the “CDK19 Selectivity” value is 3.5 and the IC50 turned out to be 0.378 µM. The compound further had an IC50 at CDK8 of 1.32 µM.
For the compound `COc1cc(Nc2cnc(Nc3cccc(CC(C)C)c3)nc2)ccn1` [Compound A33], the “CDK19 Selectivity” value at CDK19/CycC was 3. In addition, the IC50 at CDK19/CycC was found to be 0.965 µM; at CDK8 it was 2.87 µM.
Consider `CC(C)Cc1cccc(Nc2ncc(Nc3ccnc(C(C)C)c3)cn2)c1` [Compound A34], for which the “CDK19 Selectivity” value at CDK19/CycC amounted to 5. Besides, the results for the IC50 at CDK19/CycC and at CDK8 were 0.903 µM and 4.51 µM, respectively.
Regarding `CC(C)Cc1cccc(Nc2ncc(Nc3ccnc(C(F)(F)F)c3)cn2)c1` [Compound A35], the IC50 on CDK19/CycC and on CDK8 was 10 µM throughout.
Consider `COc1cc(CC(C)C)ccc1Nc1ncc(Nc2ccncc2)cn1` [Compound A36], for which the “CDK19 Selectivity” value on CDK19/CycC amounted to 4.2. Moreover, the IC50 on CDK19/CycC is 0.123 µM; on CDK8, 0.513 µM.
For `c1cc(Nc2cnc(Nc3ccc4c(c3)CCCC4)nc2)ccn1` [Compound A37], on CDK19/CycC, the “CDK19 Selectivity” value is reported as 2 and the IC50 came to 0.041 µM. Besides, the IC50 at CDK8 is 0.083 µM.
Regarding `COc1cc(N2CCN(C)CC2)ccc1Nc1ncc(Nc2ccncc2)cn1` [Compound A38], the IC50 on CDK19/CycC and on CDK8 was 10 µM throughout.
At CDK19/CycC, `Cc1cc(CC(C)C)cc(Nc2ncc(Nc3ccncc3)cn2)c1` [Compound A40] showed an IC50 of 25 µM.
`Cc1cc(Nc2ncc(Nc3ccncc3)cn2)ccc1F` [Compound A41]: at CDK19/CycC, the “CDK19 Selectivity” value was 1. For the same compound, the IC50 on CDK19/CycC and at CDK8 was 8.94 µM in each case.
With `Cc1cc(Nc2cnc(Nc3ccc(CC4CC4)cc3)nc2)ccn1` [Compound A42], at CDK19/CycC, the “CDK19 Selectivity” value turned out to be 2 and the IC50 turned out to be 0.449 µM. This compound registered a half-inhibitory concentration (IC50) at CDK8 of 0.833 µM.
Consider `c1ccc2c(Nc3cnc(Nc4ccc(CC5CC5)cc4)nc3)ccnc2c1` [Compound A43], for which the “CDK19 Selectivity” value on CDK19/CycC worked out at 6. In addition, the IC50 on CDK19/CycC was 0.006 µM; at CDK8, 0.037 µM.
For the compound `FC(F)(F)c1cc(Nc2ncc(Nc3ccncc3)cn2)cc(C(F)(F)F)c1` [Compound A44], on CDK19/CycC, the “CDK19 Selectivity” value is recorded as 1 and the IC50 was 4.81 µM. Also, the IC50 on CDK8 was 6.33 µM.
Consider `c1cc(Nc2cnc(Nc3ccc(CC4CC4)cc3)nc2)ccn1` [Compound A45], for which, at CDK19/CycC, the “CDK19 Selectivity” value came to 2 and the IC50 stood at 0.138 µM. Moreover, the IC50 on CDK8 stood at 0.214 µM.
Consider `CC(C)Cc1ccc(Nc2ncc(Nc3ccnc(C(C)C)c3)cn2)cc1` [Compound A46], for which the “CDK19 Selectivity” value at CDK19/CycC worked out at 4.6. The values for the IC50 at CDK19/CycC and at CDK8 were 0.088 µM and 0.407 µM, respectively.
For the compound `CC(C)Cc1ccc(Nc2ncc(NC(=O)c3ccncc3)cn2)cc1` [Compound A48, N-(2-((4-isobutylphenyl)amino)pyrimidin-5-yl) isonicotinamide], at CDK19/CycC, the “CDK19 Selectivity” value turned out to be 5.3 and the IC50 was 1.55 µM. The compound also came in with an IC50 at CDK8 of 8.22 µM.
Take `CC(C)Cc1ccc(Nc2ncc(Nc3ccncc3)cn2)cc1` [Compound A140]: the “CDK19 Selectivity” value at CDK19/CycC turned out to be 2.5.
Same read-out and setting: in the case of `Cc1cc(Nc2cnc(Nc3ccc(CC(C)C)cc3)nc2)ccn1` [Compound A144] it was 2.5.
Turning to `O=C(NC1CCCC1)c1cnccc1Nc1cnc(Nc2ccc(C3CCCCC3)cc2)nc1` [Compound A151], at CDK19/CycC, the concentration for half-maximal inhibition (IC50) was found to be 1.11 µM.

These data come from patent publication US20240351996A1, “CDK19-SELECTIVE INHIBITORS, AND METHODS OF USE THEREOF” (CZ BIOHUB SF, LLC, priority 2022, published 2024).
